Patent US5179084A, “Antiviral phosphoric acid esters of oxetanocins” (Nippon Kayaku Kabushiki Kaisha, priority 1989, dated 1993)
In brackets after ≈: the same amount, converted by molar mass. Each block holds one compound with its values, some of them ahead of it.

Tests used:
[1] = target: HBV-intrinsic DNA polymerase (Hepatitis B virus adr4, UniProt P12933); assay: Inhibitory activity on HBV-intrinsic DNA polymerase, HBV core particles from HB611 cells; assay type: biochemical
Procedure: 1. Partial purification of HBV core particles
After HB611 cells were homogenized with buffer solution for extraction shown below, the centrifugal supernatant (14000 rpm, 0° C., 30 minutes) was overlaid on 30% saccharose-containing buffer solution for extraction, which was subjected to supercentrifugation (35000 rpm, 4° C., 18 hours) to give crude core particle precipitates. The crude core particles were suspended in the buffer solution for extraction and purified by cesium chloride density-gradient centrifugation method to give partially purified core particles showing a density of 1.30 to 1.35 g/ml.
Buffer solution for extraction:
2-mercaptoethanol/1 mM PMSF): 10 mM
Tris-hydrochloride (pH 7.4), 1 mM EDTA, 10 mM
2. Measurement of HBV-intrinsic polymerase activity
The partially purified core particles were added to the reaction solution shown below. After incubating at 37° C. for 2 hours in the presence of Compound No. 3 in various concentrations, dCTP was added thereto in a final concentration of 1 mM. After incubation at 37° C. for an additional an hour, proteinase K, SDS, EDTA and tRNA were added thereto in final concentrations of 0.5 mg/ml, 1%, 10 mM and 200 μg/ml, respectively, followed by incubation at 45° C. for 2 hours. Thereafter HBV-DNA was purified by phenolchloroform extraction and ethanol precipitation and then subjected to electrophoresis with 1.5% agarose. Radioactive uptake in HBV-DNA was determined by autoradiography. The autoradiogram was scanned by a densitometer to calculate the inhibitory activity of Compound No. 3 against HBV-DNA polymerase.
Reaction solution: containing 50 mM Tris-hydrochloride
(pH 7.4), 30 mM magnesium chloride, 0.1 M
ammonium chloride, 0.2% 2-mercaptoethanol,
200 μM each of dATP, dGTP and dTTP

[2] = test system: cytomegalovirus (A0169 strain); assay: Anti-cytomegalovirus activity, plaque formation in human fetal fibroblasts; assay type: cell-based; conditions: Human betaherpesvirus 5, Fibroblast, 240 h, 100 PFU, 37° C., 10 days, read-out: Anti-cytomegalovirus Activity ED50 (50% inhibitory value)
Procedure: Anti-cytomegalovirus activity was determined by the following manner. A 35 mm.PHI. dish containing a single layer of human fetal fibroblasts was infected with 100 PFU (plaque forming units) of cytomegalovirus (A0169 strain). After adsorption for one hour, a medium (0.5% agarose, 2% fetal calf serum) containing a varied concentration of the compound of the present invention was superposed thereon, and the whole was cultured at 37° C. for 10 days in 5% (v/v) carbon dioxide incubator, after which the formation of plaque was measured. The results are shown in Table 3 in terms of 50% inhibitory value (ED50).

[3] = test system: HIV; assay: Anti-HIV activity in MT-4 cells, development of virus antigen by indirect fluorescent antibody method; assay type: cell-based; conditions: for EC50: Human immunodeficiency virus 1, MT4, 96 h, MT-4 cells, 4 days culture after HIV infection, read-out: Development of Virus Antigen Activity ED50; for anti-HIV activity (in words): summary of results
Procedure: MT-4 cell (about 10,000 cells/ml) was added to a 24 well tray, and then 100 μl of a solution containing a predetermined quantity of Compound No. 1 of the present invention was added. After culturing at 37° C. for 5 hours in 5% (v/v) carbon dioxide incubator, 10^3 to 10^4 infection units of HIV was added and cultured for 4 days. Then, a part of the cultured fluid was coated onto a slide glass and immobilized with acetone, after which development of virus antigen was observed by indirect fluorescent antibody method.
As the primary antibody of the fluorescent antibody method, a serum of AIDS patient was used. As its secondary antibody, FITC-labelled […] was used.

[4] = target: T1, reverse transcriptase (RTase) of HIV (Human immunodeficiency virus type 1 group M subtype B, UniProt P04585); assay: Inhibition of HIV reverse transcriptase (RTase), 3H-AMP uptake; assay type: biochemical, human immunodeficiency virus (HTLV-IIIB)
T1 construct: Measurement of Activity of Reverse Transcriptase (RTase) of HIV; endogenous in cells; host or cells: MOLT-4/HTLV-IIIB cells persistently infected with HIV (viral protein made by the infection; crude lysate)
Procedure: Measurement of Activity of Reverse Transcriptase (RTase) of HIV
MOLT-4/HTLV-IIIB cells which were persistently infected with HIV were destroyed with Triton X-100 or the like to prepare crude enzyme (RTase).
Using poly(dT) and oligo(dA) as template primers, the following reaction solution was used.
2. Composition of reaction solution
______________________________________
5 mg/ml Bovine serum albumin
1M Tris-HCl buffer (pH 7.8)
100 mM Dithiothreitol 2.0
5 units/ml Oligo(dA) 4.0
Uptake of ^3 H-AMP in the acid-insoluble fraction in the reaction solution under the above conditions was determined by a liquid scintillation counter.

[5] = test system: DNA virus such as cytomegalovirus, hepatitis B virus, herpes virus; assay: Antiviral activity (summary statement); conditions: summary of results

Sequence of HBV-intrinsic DNA polymerase (P12933 whole entry): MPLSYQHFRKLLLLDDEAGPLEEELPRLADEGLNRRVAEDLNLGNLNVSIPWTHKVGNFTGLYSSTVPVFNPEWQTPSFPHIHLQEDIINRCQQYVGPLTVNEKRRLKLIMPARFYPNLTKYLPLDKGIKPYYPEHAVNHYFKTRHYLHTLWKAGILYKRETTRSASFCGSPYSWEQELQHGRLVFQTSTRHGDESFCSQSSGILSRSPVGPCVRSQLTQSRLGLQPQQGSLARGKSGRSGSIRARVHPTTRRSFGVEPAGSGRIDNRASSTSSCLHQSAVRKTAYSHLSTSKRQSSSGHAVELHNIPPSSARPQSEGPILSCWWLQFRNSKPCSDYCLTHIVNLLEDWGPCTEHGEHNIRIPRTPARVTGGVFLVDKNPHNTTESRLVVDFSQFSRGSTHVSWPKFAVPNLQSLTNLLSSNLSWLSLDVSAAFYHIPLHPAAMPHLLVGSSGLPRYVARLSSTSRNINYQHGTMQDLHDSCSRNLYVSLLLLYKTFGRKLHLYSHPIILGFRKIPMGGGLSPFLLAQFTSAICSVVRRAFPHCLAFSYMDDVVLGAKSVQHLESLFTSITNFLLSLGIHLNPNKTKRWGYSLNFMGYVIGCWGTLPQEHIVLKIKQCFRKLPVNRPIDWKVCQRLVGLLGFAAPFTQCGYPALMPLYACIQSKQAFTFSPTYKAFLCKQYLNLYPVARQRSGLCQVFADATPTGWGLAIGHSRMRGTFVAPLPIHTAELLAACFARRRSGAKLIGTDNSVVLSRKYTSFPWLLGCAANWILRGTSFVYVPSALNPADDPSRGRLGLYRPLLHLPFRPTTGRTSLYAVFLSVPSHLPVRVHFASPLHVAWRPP

Compound: Nc1nc2c(ncn2[C@@H]2O[C@H](COP(=O)(O)OP(=O)(O)OP(=O)(O)O)[C@H]2CO)c(=O)[nH]1 [Compound No. 3]
- inhibition at 100 µM ([1]; 100 μM, read-out: Inhibition Rate (HBV-DNA polymerase)): 50.7%
- inhibition at 200 µM ([1]; 200 μM, read-out: Inhibition Rate (HBV-DNA polymerase)): 88.8%
- inhibition at 400 µM ([1]; 400 μM, read-out: Inhibition Rate (HBV-DNA polymerase)): 96.8%
- inhibition of DNA polymerase of DNA virus (in words) ([1]; summary of results, 'the aforesaid DNA virus'): inhibits DNA polymerase of the aforesaid DNA virus

Compound: Nc1ncnc2c1ncn2[C@@H]1O[C@H](COP(=O)(O)OP(=O)(O)OP(=O)(O)O)[C@H]1CO [Compound No. 2]
- inhibition at 4.17 µM ([4]; 4.17 μM, 37° C., 1 hour): 1%
- inhibition at 12.5 µM ([4]; 12.5 μM, 37° C., 1 hour): 33.9%
- inhibition at 125 µM ([4]; 125 μM, 37° C., 1 hour): 93%
- inhibition at 417 µM ([4]; 417 μM, 37° C., 1 hour): 98.8%
- inhibition at 42.7 µM ([4]; read-out: RTase Inhibition (%)): 69.4%
- reverse transcriptase inhibitory action of HIV (in words) ([4]; summary of results): shows reverse transcriptase inhibitory action of HIV

Compound: Nc1nc2c(ncn2[C@@H]2O[C@H](COP(=O)(O)O)[C@H]2CO)c(=O)[nH]1 [Compound No. 5]
- EC50 [2]: 0.4 mg/L (≈ 1.15 µM)
- antiviral activity against DNA virus (in words) [5]: excellent antiviral activity against DNA virus

Continued, in another order:

- EC50 [3]: 0.1 mg/L (≈ 0.302 µM)
Compound: Nc1ncnc2c1ncn2[C@@H]1O[C@H](COP(=O)(O)O)[C@H]1CO [Compound No. 1]
- EC50 [2]: 1.85 mg/L (≈ 5.59 µM)
- anti-HIV activity (in words) [3]: excellent anti-HIV activity

- EC50 [3]: 0.007 mg/L (≈ 0.0232 µM)
Compound: Nc1ncnc2c1ncn2[C@H]1C[C@@H](COP(=O)(O)O)O1 [Compound No. 6]
- anti-HIV activity (in words) [3]: excellent anti-HIV activity
